PubChem BioAssay AID2060912 (Molecular Pharmacology Branch, DTP, NCI, 2025)

Tested on: HUVEC/MSC spheroids viability
Assay: Human HUVEC/MSC cell line growth inhibition [KRAS2];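 for viability, T/C: percent of DMSO vehicle control luminescence so 100% = untreated viability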
Settings: for IC50: curve of first compound; for viability, T/C: stronger effect = lower value
Procedure, shortened: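 HUVEC + hMSC stromal spheroids only, no malignant cells; 37 °C, 5% CO2. Drugs singly and in pairs, half-log series down from clinical Cmax (max 10 microM if Cmax undetermined).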

For `CC1COCCN1c1cc(-c2ccnn2C)c2ccnc(-c3ccn[nH]3)c2n1` (centres undefined) + COc1cc2nc(C)nc(NC(C)c3cc(N)cc(C(F)(F)F)c3)c2cc1OC1CCOC1, the IC50 (second compound 0.0316 µM) was 1.74 µM, the IC50 (second compound 0.1 µM) was 0.908 µM and the IC50 (second compound 0.316 µM) was > 3 µM. For the same compound, the IC50 (second compound 1 µM) was 1.04 µM, the IC50 (second compound 3.16 µM) was 2.52 µM and the IC50 (second compound 10 µM) was > 3 µM. For the same compound, the viability, T/C (second compound 0.0316 µM, first compound 0.00949 µM) was 98.9%, the viability, T/C (second compound 0.0316 µM, first compound 0.03 µM) was 92.4% and the viability, T/C (second compound 0.0316 µM, first compound 0.0949 µM) was 86.8%. The viability, T/C (second compound 0.0316 µM, first compound 0.3 µM) was 75.7%, the viability, T/C (second compound 0.0316 µM, first compound 0.949 µM) was 55.9% and the viability, T/C (second compound 0.0316 µM, first compound 3 µM) was 43.9%. The viability, T/C (second compound 0.1 µM, first compound 0.00949 µM) was 83.2%, the viability, T/C (second compound 0.1 µM, first compound 0.03 µM) was 81.1% and the viability, T/C (second compound 0.1 µM, first compound 0.0949 µM) was 79.7%. For the same compound, the viability, T/C (second compound 0.1 µM, first compound 0.3 µM) was 80.4%, the viability, T/C (second compound 0.1 µM, first compound 0.949 µM) was 48.8% and the viability, T/C (second compound 0.1 µM, first compound 3 µM) was 46.4%. For the same compound, the viability, T/C (second compound 0.316 µM, first compound 0.00949 µM) was 82.2%, the viability, T/C (second compound 0.316 µM, first compound 0.03 µM) was 95% and the viability, T/C (second compound 0.316 µM, first compound 0.0949 µM) was 80.3%. The viability, T/C (second compound 0.316 µM, first compound 0.3 µM) was 79.8%, the viability, T/C (second compound 0.316 µM, first compound 0.949 µM) was 47.6% and the viability, T/C (second compound 0.316 µM, first compound 3 µM) was 52.4%. The viability, T/C (second compound 1 µM, first compound 0.00949 µM) was 88.3%, the viability, T/C (second compound 1 µM, first compound 0.03 µM) was 89.8% and the viability, T/C (second compound 1 µM, first compound 0.0949 µM) was 95.8%. For the same compound, the viability, T/C (second compound 1 µM, first compound 0.3 µM) was 72.1%, the viability, T/C (second compound 1 µM, first compound 0.949 µM) was 53.3% and the viability, T/C (second compound 1 µM, first compound 3 µM) was 37.3%. For the same compound, the viability, T/C (second compound 3.16 µM, first compound 0.00949 µM) was 79%, the viability, T/C (second compound 3.16 µM, first compound 0.03 µM) was 94.1% and the viability, T/C (second compound 3.16 µM, first compound 0.0949 µM) was 93.2%. For the same compound, the viability, T/C (second compound 3.16 µM, first compound 0.3 µM) was 81.7%, the viability, T/C (second compound 3.16 µM, first compound 0.949 µM) was 59.5% and the viability, T/C (second compound 3.16 µM, first compound 3 µM) was 48.2%. The viability, T/C (second compound 10 µM, first compound 0.00949 µM) was 63.3%, the viability, T/C (second compound 10 µM, first compound 0.03 µM) was 72.6% and the viability, T/C (second compound 10 µM, first compound 0.0949 µM) was 65.2%. It also gave a viability, T/C (second compound 10 µM, first compound 0.3 µM) of 60.4%, a viability, T/C (second compound 10 µM, first compound 0.949 µM) of 59.4% and a viability, T/C (second compound 10 µM, first compound 3 µM) of 59%.
In the case of `CC1OCC2(CCN(c3cnc(Sc4ccnc(N)c4Cl)c(N)n3)CC2)C1N` (centres undefined) + COc1cc2nc(C)nc(NC(C)c3cc(N)cc(C(F)(F)F)c3)c2cc1OC1CCOC1, the IC50 (second compound 0.0316 µM) is reported as 6.36 µM, the IC50 (second compound 0.1 µM) is reported as 6.22 µM and the IC50 (second compound 0.316 µM) is reported as > 10 µM. The IC50 (second compound 1 µM) was 6.15 µM, the IC50 (second compound 3.16 µM) was 5.19 µM and the IC50 (second compound 10 µM) was 3.73 µM. It also gave a viability, T/C (second compound 0.0316 µM, first compound 0.0316 µM) of 101%, a viability, T/C (second compound 0.0316 µM, first compound 0.1 µM) of 111% and a viability, T/C (second compound 0.0316 µM, first compound 0.316 µM) of 91.8%. It also gave a viability, T/C (second compound 0.0316 µM, first compound 1 µM) of 64.4%, a viability, T/C (second compound 0.0316 µM, first compound 3.16 µM) of 70.6% and a viability, T/C (second compound 0.0316 µM, first compound 10 µM) of 40.4%. For the same compound, the viability, T/C (second compound 0.1 µM, first compound 0.0316 µM) was 115%, the viability, T/C (second compound 0.1 µM, first compound 0.1 µM) was 90.7% and the viability, T/C (second compound 0.1 µM, first compound 0.316 µM) was 76.8%. It also gave a viability, T/C (second compound 0.1 µM, first compound 1 µM) of 72.4%, a viability, T/C (second compound 0.1 µM, first compound 3.16 µM) of 63% and a viability, T/C (second compound 0.1 µM, first compound 10 µM) of 40.8%. It also gave a viability, T/C (second compound 0.316 µM, first compound 0.0316 µM) of 80.7%, a viability, T/C (second compound 0.316 µM, first compound 0.1 µM) of 95.2% and a viability, T/C (second compound 0.316 µM, first compound 0.316 µM) of 88%. It also gave a viability, T/C (second compound 0.316 µM, first compound 1 µM) of 63.1%, a viability, T/C (second compound 0.316 µM, first compound 3.16 µM) of 60.2% and a viability, T/C (second compound 0.316 µM, first compound 10 µM) of 54.2%. The viability, T/C (second compound 1 µM, first compound 0.0316 µM) was 83.6%, the viability, T/C (second compound 1 µM, first compound 0.1 µM) was 100% and the viability, T/C (second compound 1 µM, first compound 0.316 µM) was 67.5%. The viability, T/C (second compound 1 µM, first compound 1 µM) was 72.3%, the viability, T/C (second compound 1 µM, first compound 3.16 µM) was 57.9% and the viability, T/C (second compound 1 µM, first compound 10 µM) was 44.3%. It also gave a viability, T/C (second compound 3.16 µM, first compound 0.0316 µM) of 82%, a viability, T/C (second compound 3.16 µM, first compound 0.1 µM) of 86.8% and a viability, T/C (second compound 3.16 µM, first compound 0.316 µM) of 86.9%. It also gave a viability, T/C (second compound 3.16 µM, first compound 1 µM) of 65%, a viability, T/C (second compound 3.16 µM, first compound 3.16 µM) of 59.2% and a viability, T/C (second compound 3.16 µM, first compound 10 µM) of 41.5%. It also gave a viability, T/C (second compound 10 µM, first compound 0.0316 µM) of 68.7%, a viability, T/C (second compound 10 µM, first compound 0.1 µM) of 73.8% and a viability, T/C (second compound 10 µM, first compound 0.316 µM) of 69.8%. For the same compound, the viability, T/C (second compound 10 µM, first compound 1 µM) was 59%, the viability, T/C (second compound 10 µM, first compound 3.16 µM) was 56.7% and the viability, T/C (second compound 10 µM, first compound 10 µM) was 27%.
